# Laboratory results from BindingDB's records for doi:10.1016/S0960-894X(01)80746-0 (1993).
# Assay: Tested for inhibitory activity of compound against Phospholipase A2 (PLA2)
row,SMILES,IC50 [µM]
1,CCCCCCCCCCCC(=O)N[C@H](CCCC)COP(=O)([O-])OCC[N+](C)(C)C [(2-{[2-((S)-Dodecanoylamino)-hexyloxy]-hydroxy-phosphoryloxy}-ethyl)-trimethyl-ammonium],5.3
2,CCCCCCCCCCCC(=O)N1C(=O)OC[C@@H]1COP(=O)([O-])OCC[N+](C)(C)C [{2-[((R)-3-Dodecanoyl-2-oxo-oxazolidin-4-ylmethoxy)-hydroxy-phosphoryloxy]-ethyl}-trimethyl-ammonium],31
